According to patent US7285561B2, “Imidazo-substituted compounds as p38 kinase inhibitors” (Roche Palo Alto LLC, priority 2006, dated 2007):
Counter-ions that a name gives are not always drawn.

Tested on: not given
Assay: not given
Conditions: not given

Row | SMILES | melting point
1 | CC(C)(CO)Nc1ncc2cc(-c3ccccc3Cl)c3nccn3c2n1 (as salt: HCl) [Compound 6] | 190.8 to 194.3 °C
2 | O[C@H]1CC[C@H](Nc2ncc3c(n2)N2CCN=C2C(c2ccccc2Cl)=C3)CC1 [Compound 13] | 169.3 to 175.8 °C
3 | CS(=O)(=O)CCNc1ncc2cc(-c3ccccc3Cl)c3nccn3c2n1 (as salt: HCl) [Compound 9] | 172.2 to 176 °C
4 | Fc1ccc(CNc2ncc3cc(-c4ccccc4Cl)c4nccn4c3n2)cc1 (as salt: HCl) [Compound 8] | 178 to 180 °C
5 | CC(C)Nc1ncc2cc(-c3ccccc3Cl)c3nccn3c2n1 (as salt: HCl) [Compound 7] | 210 to 212.5 °C

The remaining lines, values ahead:

Row | melting point | SMILES
6 | 188 to 194 °C | CS(=O)(=O)N1CCC(Nc2ncc3cc(-c4ccccc4Cl)c4nccn4c3n2)CC1 (as salt: HCl) [Compound 3]
7 | 211 to 214 °C | Clc1ccccc1-c1cc2cnc(NC3CCOCC3)nc2n2ccnc12 (as salt: HCl) [Compound 2]
8 | 221.8 to 226.8 °C | O=S1(=O)CCC(Nc2ncc3cc(-c4ccccc4Cl)c4nccn4c3n2)CC1 (as salt: HCl) [Compound 5]
9 | 116 to 119 °C | O[C@H]1CC[C@H](Nc2ncc3cc(-c4ccccc4Cl)c4nccn4c3n2)CC1 [Compound 1]

Target: T1, p-38 MAP kinase (Homo sapiens, UniProt Q16539)
T1 construct: made in house; host or cells: E. coli (co-expressed with SEK-1 and MEKK)
Assay: Inhibition of p-38 (MAP) kinase, in vitro assay (transfer of γ-phosphate from γ-33P-ATP to Myelin Basic Protein)
Assay type: biochemical
Conditions: phosphorylated recombinant p38 MAP kinase; substrate MBP and γ-33P-ATP; 30° C.; read-out: IC50, the concentration causing 50% inhibition of the p-38 enzyme
Description: The p-38 MAP kinase inhibitory activity of compounds of this invention in vitro was determined by measuring the transfer of the γ-phosphate from γ-^33P-ATP by p-38 kinase to Myelin Basic Protein (MBP), using the a minor modification of the method described in Ahn, N. G.; et al. J. of Biol. Chem. Vol. 266(7), 4220-4227, (1991)
The phosphorylated form of the recombinant p38 MAP kinase was expressed with SEK-1 and MEKK in E. Coli (see, Khokhlatchev, A. et al. J. of Biol. Chem. Vol. 272(17), 11057-11062, (1997) and then purified by affinity chromatography using a Nickel column.
The phosphorylated p38 MAP kinase was diluted in kinase buffer (20 mM 3-(N-morpholino)propanesulfonic acid, pH 7.2, 25 mM β-glycerol phosphate, 5 mM ethylene glycol-bis(beta-aminoethyl ether)-N,N,N′,N′-tetraacetic acid, 1 mM sodium vanadate, 1 mM dithiothreitol, 40 mM magnesium chloride). Test compound dissolved in DMSO or only DMSO (control) was added and the samples were incubated for 10 min. at 30° C. The kinase reaction was initiated by the addition of a substrate cocktail containing MBP and γ-^33P-ATP. After incubating for an additional 20 min. at 30° C., the reaction was terminated by adding 0.75% phosphoric acid. The phosphorylated MBP was then separated from the residual γ-^33P-ATP using a phosphocellulose membrane (Millipore, Bedford, Mass.) and quantitated using a scintillation counter (Packard, Meriden, Conn.).

T1 sequence (Q16539 whole entry): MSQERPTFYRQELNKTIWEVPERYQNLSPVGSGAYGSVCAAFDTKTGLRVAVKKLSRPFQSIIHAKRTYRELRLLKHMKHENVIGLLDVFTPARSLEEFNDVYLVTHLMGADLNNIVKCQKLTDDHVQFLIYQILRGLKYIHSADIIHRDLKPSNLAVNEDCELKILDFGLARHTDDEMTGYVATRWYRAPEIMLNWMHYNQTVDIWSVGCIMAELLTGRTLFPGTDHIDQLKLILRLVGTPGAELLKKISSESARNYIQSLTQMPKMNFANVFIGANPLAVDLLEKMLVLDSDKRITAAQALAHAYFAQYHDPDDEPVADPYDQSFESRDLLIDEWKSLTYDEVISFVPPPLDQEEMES

Row | SMILES | IC50
10 | O[C@H]1CC[C@H](Nc2ncc3c(n2)N2CCN=C2C(c2ccccc2Cl)=C3)CC1 [Compound 13] | 1140 nM
11 | O[C@H]1CC[C@H](Nc2ncc3c(n2)N2CCN=C2N(c2ccccc2Cl)C3)CC1 [Compound 12] | 6620 nM
12 | CC(C)Nc1ncc2cc(-c3ccccc3Cl)c3nccn3c2n1 [Compound 7] | 1.4 nM
13 | CC(C)(CO)Nc1ncc2cc(-c3ccccc3Cl)c3nccn3c2n1 [Compound 6] | 18.8 nM

Other lines, results leading:

Row | IC50 | SMILES
14 | 2.7 nM | CS(=O)(=O)N1CCC(Nc2ncc3cc(-c4ccccc4Cl)c4nccn4c3n2)CC1 [Compound 3]
15 | 10 nM | O[C@H]1CC[C@H](Nc2ncc3cc(-c4ccccc4Cl)c4nccn4c3n2)CC1 [Compound 1]
